Where “and” joins values, the source holds several entries; their conditions need not be identical. Equal entries are not always repeated.
Key:
Experiment in all cases: Postemergence herbicidal activity, greenhouse trial (visual injury 0-100%)
Type in all cases: in vivo
[1] = system: poinsettia (Euphorbia heterophylla, EPHHL); details: for % visual injury Obs: EPHHL
Outline: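 Greenhouse-grown plants at the second to third true leaf stage were sprayed with two-way mixtures in 1.5% v/v Agri-dex crop oil concentrate at 187 L/ha; rates in g ae/ha for component (a) and g ai/ha for component (b). Injury scored visually 0–100% versus solvent-blank controls after 20–22 d, with expected mixture effects from Colby's equation.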

[2] = system: blackgrass (Alopecurus myosuroides, ALOMY)
Outline: (§1)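 Greenhouse plants at the 2nd–3rd true-leaf stage (14 h photoperiod, ~23/22 °C) were track-sprayed at 187 L/ha with acetone/DMSO stocks diluted in 1.5% v/v crop oil concentrate. Rates were g ae/ha for component (a) and g ai/ha for (b). Injury versus solvent-blank controls was rated visually at 20–22 d, with Colby's equation giving expected mixture effects.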

[3] = system: grain sorghum (Sorghum vulgare, SORVU)
Outline: as §1

[4] = system: large crabgrass (Digitaria sanguinalis, DIGSA)

Nc1c(F)c(-c2ccc3cc[nH]c3c2F)nc(C(=O)O)c1Cl [Compound 1]
% visual injury Obs ([1]; Compound 1 5 g ae/ha): 97%
% visual injury Obs ([1]; Compound 1 10 g ae/ha): 97%
pest or weed control at 5 g/ha ([1]; Euphorbia heterophylla, post-emergence, 5 g ae/ha, read-out: % visual injury Obs): 97%
pest or weed control at 10 g/ha ([1]; Euphorbia heterophylla, post-emergence, 10 g ae/ha, read-out: % visual injury Obs): 97%
% visual injury Obs ([2]; 5 g ae/ha): 0%
% visual injury Obs ([2]; 10 g ae/ha): 0%
% visual injury Obs ([2]; ALOMY, Compound 1 5 g ae/ha): 0%
% visual injury Obs ([2]; ALOMY, Compound 1 10 g ae/ha): 0%
% visual injury Obs ([3]; 5 g ae/ha): 10% and 0%
% visual injury Obs ([3]; 10 g ae/ha): 50%
% visual injury Obs ([3]; SORVU, Compound 1 5 g ae/ha): 0% and 10%
% visual injury Obs ([3]; SORVU, Compound 1 10 g ae/ha): 50%
% visual injury Obs ([4]; 5 g ae/ha): 5% and 0%
% visual injury Obs ([4]; 10 g ae/ha): 10%
